According to patent EP1247803A2, “Indolinone compounds suitable for modulation of protein kinases” (Sugen, Inc., priority 1996, dated 1998):

Tests used:
MET = MET biochemical kinase assay; set-up: species or system human; concentration or dose not given beside the values
How it was run: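 Plates coated with anti-rabbit Fc bind a rabbit anti-MET antibody that captures receptor from cell lysates; unbound protein is washed off before compound and ATP-containing kinase buffer go in.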

EGFR = target: T1, EGFR (Homo sapiens, UniProt P00533); assay: EGFR ELISA assay (in vitro kinase activity, EGFR captured from A431 cell lysate); type: biochemical; set-up: concentration or dose not given beside the values
T1 construct: Add 7 ug A431 cell lysate per well (EGFR source); endogenous in cells; host or cells: A431
T1 sequence (P00533 25-1210): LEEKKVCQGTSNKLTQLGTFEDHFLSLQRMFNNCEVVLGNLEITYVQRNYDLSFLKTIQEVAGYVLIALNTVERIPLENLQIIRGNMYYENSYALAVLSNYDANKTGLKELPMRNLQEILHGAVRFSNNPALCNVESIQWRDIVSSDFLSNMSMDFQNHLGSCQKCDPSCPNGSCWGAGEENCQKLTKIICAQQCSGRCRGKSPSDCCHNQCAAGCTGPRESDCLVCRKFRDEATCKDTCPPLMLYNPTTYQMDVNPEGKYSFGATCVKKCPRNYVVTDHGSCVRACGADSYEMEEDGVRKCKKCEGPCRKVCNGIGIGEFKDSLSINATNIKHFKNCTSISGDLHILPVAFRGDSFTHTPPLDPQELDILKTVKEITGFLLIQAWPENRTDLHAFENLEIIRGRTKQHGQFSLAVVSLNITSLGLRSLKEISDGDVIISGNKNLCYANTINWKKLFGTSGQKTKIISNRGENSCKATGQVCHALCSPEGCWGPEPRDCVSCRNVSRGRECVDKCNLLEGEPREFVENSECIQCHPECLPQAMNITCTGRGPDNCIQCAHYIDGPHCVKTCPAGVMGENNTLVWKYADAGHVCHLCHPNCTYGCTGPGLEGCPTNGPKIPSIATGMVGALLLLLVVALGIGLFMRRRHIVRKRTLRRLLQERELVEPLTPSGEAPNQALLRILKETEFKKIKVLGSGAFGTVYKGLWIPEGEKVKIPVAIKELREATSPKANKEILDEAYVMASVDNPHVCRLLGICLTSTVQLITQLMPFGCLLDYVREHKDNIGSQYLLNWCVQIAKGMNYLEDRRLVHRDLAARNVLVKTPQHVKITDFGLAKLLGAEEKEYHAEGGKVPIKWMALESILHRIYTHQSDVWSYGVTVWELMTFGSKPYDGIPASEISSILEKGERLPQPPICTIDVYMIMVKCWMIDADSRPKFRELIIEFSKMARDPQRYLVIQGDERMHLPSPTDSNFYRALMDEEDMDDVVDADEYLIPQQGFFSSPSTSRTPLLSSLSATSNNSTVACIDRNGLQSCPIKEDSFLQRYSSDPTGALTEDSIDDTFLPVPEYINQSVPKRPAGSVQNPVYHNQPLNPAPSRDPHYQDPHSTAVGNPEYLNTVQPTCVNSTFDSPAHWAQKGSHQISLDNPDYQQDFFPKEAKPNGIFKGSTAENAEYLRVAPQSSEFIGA
How it was run: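 EGFR from A431 lysate was captured on plates coated with anti-EGFR antibody. Compounds were added 30 min before a 5 min phosphorylation with 3 µM ATP/5 mM MnCl2, which was stopped with 20 mM EDTA. Phosphotyrosine was detected with rabbit anti-phosphotyrosine, then a peroxidase-conjugated secondary and ABTS/H2O2, read at 410 nm.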

Row | Compound | Met Kinase % Inhibition (MET) [%] | Biochem EGFR %Inhibition (EGFR) [%]
1 | Cc1[nH]c(C=C2C(=O)Nc3ccc(CCCl)cc32)c(Br)c1Br [10717/G11] | 73.8 | 71.7
2 | CCOC(=O)c1c(C)[nH]c(C=C2C(=O)Nc3c(Br)cc(Br)cc32)c1C [10718/A02] | 54.6 | 11.3
3 | COc1cc(Br)c(O)c(C=C2C(=O)Nc3c(Br)cc(Br)cc32)c1 [10718/A03] | 92.7 | -6.1
4 | O=C1Nc2c(Br)cc(Br)cc2C1=Cc1ccc2ccccc2c1O [10718/A04] | 81.7 | 27.3
5 | CCOC(=O)CCc1c(C(=O)OCC)[nH]c(C=C2C(=O)Nc3c(Br)cc(Br)cc32)c1CC(=O)OCC [10718/A05] | 36.1 | -6.9
6 | CCOC(=O)c1cc(C=C2C(=O)Nc3c(Br)cc(Br)cc32)oc1C [10718/A06] | 61.3 | 19.4
7 | COC(=O)c1[nH]c(C)c(C=C2C(=O)Nc3c(Br)cc(Br)cc32)c1C(=O)OC [10718/A07] | 58.6 | -10.6
8 | O=C1Nc2c(Br)cc(Br)cc2C1=Cc1ccc(Cl)c([N+](=O)[O-])c1 [10718/A08] | 36.8 | 5.8
9 | CNS(=O)(=O)c1ccc2c(c1)C(=Cc1cc(Cl)cc(Br)c1O)C(=O)N2 [10727/D04] | 76.0 | 39.6
10 | CNS(=O)(=O)c1ccc2c(c1)C(=Cc1ccccc1Sc1ccc(Cl)cc1)C(=O)N2 [10727/D05] | 39.9 | 3.4
11 | CNS(=O)(=O)c1ccc2c(c1)C(=Cc1cc3c(cc1Cl)OCO3)C(=O)N2 [10727/D06] | 24.4 | 8.6
12 | CNS(=O)(=O)c1ccc2c(c1)C(=Cc1coc3ccccc3c1=O)C(=O)N2 [10727/D07] | 50.6 | 10.5
13 | CNS(=O)(=O)c1ccc2c(c1)C(=Cc1cccc(C#N)c1)C(=O)N2 [10727/D08] | 8.5 | -0.5
14 | CNS(=O)(=O)c1ccc2c(c1)C(=Cc1ccc(C#N)cc1)C(=O)N2 [10727/D09] | 17.9 | 15.1
15 | CNS(=O)(=O)c1ccc2c(c1)C(=Cc1cc(O)ccc1O)C(=O)N2 [10727/D10] | 79.9 | 86.2
16 | CNS(=O)(=O)c1ccc2c(c1)C(=Cc1cccc(OC)c1OC)C(=O)N2 [10727/D11] | 17.3 | -23.7
17 | CCN(CC)c1ccc(C=C2C(=O)Nc3ccc(S(=O)(=O)Nc4ccc(C(F)(F)F)cc4)cc32)cc1 [10727/E02] | 28.0 | 22.4
18 | CCc1cc(CC)c(C=C2C(=O)Nc3ccc(S(=O)(=O)Nc4ccc(C(F)(F)F)cc4)cc32)[nH]1 [10727/E03] | 28.8 | 35.5
19 | O=C1Nc2ccc(S(=O)(=O)Nc3ccc(C(F)(F)F)cc3)cc2C1=Cc1cc(Cl)cc(Br)c1O [10727/E04] | 98.4 | 82.1

Row | Compound | Met Kinase % Inhibition (MET) [%] | Biochem EGFR %Inhibition (EGFR) [%]
20 | O=C1Nc2ccc(S(=O)(=O)Nc3ccc(C(F)(F)F)cc3)cc2C1=Cc1ccccc1Sc1ccc(Cl)cc1 [10727/E05] | 12.1 | 12.9
21 | O=C1Nc2ccc(S(=O)(=O)Nc3ccc(C(F)(F)F)cc3)cc2C1=Cc1cc2c(cc1Cl)OCO2 [10727/E06] | -2.2 | -9.3
22 | O=C1Nc2ccc(S(=O)(=O)Nc3ccc(C(F)(F)F)cc3)cc2C1=Cc1coc2ccccc2c1=O [10727/E07] | 45.2 | 7.1
23 | N#Cc1cccc(C=C2C(=O)Nc3ccc(S(=O)(=O)Nc4ccc(C(F)(F)F)cc4)cc32)c1 [10727/E08] | 27.0 | 25.6
24 | N#Cc1ccc(C=C2C(=O)Nc3ccc(S(=O)(=O)Nc4ccc(C(F)(F)F)cc4)cc32)cc1 [10727/E09] | 28.4 | 15.1
25 | O=C1Nc2ccc(S(=O)(=O)Nc3ccc(C(F)(F)F)cc3)cc2C1=Cc1cc(O)ccc1O [10727/E10] | 96.6 | 85.1
26 | COc1cccc(C=C2C(=O)Nc3ccc(S(=O)(=O)Nc4ccc(C(F)(F)F)cc4)cc32)c1OC [10727/E11] | -5.4 | -33.4
27 | CCN(CC)c1ccc(C=C2C(=O)Nc3ccc(S(=O)(=O)N4CCOCC4)cc32)cc1 [10727/F02] | 52.0 | -0.5
28 | CCc1cc(CC)c(C=C2C(=O)Nc3ccc(S(=O)(=O)N4CCOCC4)cc32)[nH]1 [10727/F03] | 22.0 | 36.8
29 | O=C1Nc2ccc(S(=O)(=O)N3CCOCC3)cc2C1=Cc1cc(Cl)cc(Br)c1O [10727/F04] | 92.0 | 17.9
30 | O=C1Nc2ccc(S(=O)(=O)N3CCOCC3)cc2C1=Cc1ccccc1Sc1ccc(Cl)cc1 [10727/F05] | 6.0 | -9.1
31 | O=C1Nc2ccc(S(=O)(=O)N3CCOCC3)cc2C1=Cc1cc2c(cc1Cl)OCO2 [10727/F06] | 37.7 | 4.9
32 | O=C1Nc2ccc(S(=O)(=O)N3CCOCC3)cc2C1=Cc1coc2ccccc2c1=O [10727/F07] | 17.9 | -8.9
33 | N#Cc1cccc(C=C2C(=O)Nc3ccc(S(=O)(=O)N4CCOCC4)cc32)c1 [10727/F08] | 36.9 | -5.4
34 | N#Cc1ccc(C=C2C(=O)Nc3ccc(S(=O)(=O)N4CCOCC4)cc32)cc1 [10727/F09] | 9.3 | -2.0
35 | O=C1Nc2ccc(S(=O)(=O)N3CCOCC3)cc2C1=Cc1cc(O)ccc1O [10727/F10] | 93.4 | 74.1
36 | COc1cccc(C=C2C(=O)Nc3ccc(S(=O)(=O)N4CCOCC4)cc32)c1OC [10727/F11] | -3.0 | -2.6
37 | CCN(CC)c1ccc(C=C2C(=O)Nc3ccc(CCCl)cc32)cc1 [10727/G02] | 81.5 | 37.5
